{"source": "patent US10674699B2", "about": "“Endophyte enhanced seedlings with increased pest tolerance” (priority 2006, dated 2020)", "origin": "cited, not measured here", "key": {"[1]": {"conditions": "Breen et al. 1955; cited from earlier work"}, "[2]": {"system": "rats", "conditions": "in rats; Ueno et al. 1971; cited from earlier work"}, "[3]": {"system": "HepG2 cells (human hepatoma cells)", "conditions": "Watts et al. 2003; cited from earlier work"}, "[4]": {"system": "spruce budworm larvae", "conditions": "Miller et al. 2002; cited from earlier work"}}, "data": [{"compound": "Cc1cc(O)c2c(c1)C(=O)[C@]13C(=C2O)C(=O)[C@@H]2[C@H](O)[C@H]1[C@@H]1[C@@H](O)[C@H]3C(=O)C3=C(O)c4c(O)cc(C)cc4C(=O)[C@]312", "note": "[rugulosin]", "values": [{"measurement": "antifungal activity", "setting": "[1]", "result": "moderately antifungal"}, {"measurement": "LD50", "setting": "[2]", "result": 44, "unit": "mg kg^−1 BW"}, {"measurement": "cytotoxicity", "setting": "[3]", "result": "not cytotoxic"}, {"measurement": "toxicity to C. fumiferana larvae in needles", "setting": "[4]", "result": "toxic"}]}]}
